PubChem BioAssay (NCI)
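Five concentrations, 48 hours, 96-well plates. GI50 is the concentration that inhibits growth by half. TGI: total growth inhibition.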

Experiments:
Test in all cases: DTP human tumour cell line panel, 48 h
ACHN renal = tested on: ACHN renal
TK-10 renal = tested on: TK-10 renal
SN12C renal = tested on: SN12C renal
UACC-62 melanoma = tested on: UACC-62 melanoma
CCRF-CEM leukemia = tested on: CCRF-CEM leukemia
786-0 renal = tested on: 786-0 renal
OVCAR-5 ovarian = tested on: OVCAR-5 ovarian
HCT-15 colon = tested on: HCT-15 colon
HOP-62 NSCLC = tested on: HOP-62 NSCLC
SF-295 CNS = tested on: SF-295 CNS

Compound	GI50 (ACHN renal) [µM]	TGI (ACHN renal) [µM]	GI50 (TK-10 renal) [µM]	TGI (TK-10 renal) [µM]	GI50 (SN12C renal) [µM]	TGI (SN12C renal) [µM]	GI50 (UACC-62 melanoma) [µM]	TGI (UACC-62 melanoma) [µM]	GI50 (CCRF-CEM leukemia) [µM]	TGI (CCRF-CEM leukemia) [µM]	GI50 (786-0 renal) [µM]	TGI (786-0 renal) [µM]	GI50 (OVCAR-5 ovarian) [µM]	TGI (OVCAR-5 ovarian) [µM]	GI50 (HCT-15 colon) [µM]	TGI (HCT-15 colon) [µM]	GI50 (HOP-62 NSCLC) [µM]	TGI (HOP-62 NSCLC) [µM]	GI50 (SF-295 CNS) [µM]	TGI (SF-295 CNS) [µM]
COc1cc(/C=C/C(=O)c2cccc(-n3cc(-c4ccccc4)[nH]c3=O)c2)ccc1O	3.46	16.3	9.52	31.2	3.02	12	2.33	7.74	1.76	5.33	2.37	7.93	6.25	14.1	2.9	14.3	4.6	15.3	6.75	21
Cc1cc(N)c2cc(NC(=O)/C=C\c3ccccc3Cl)ccc2n1	1.83	3.26	2.11	3.69	1.36	2.69	1.05	2.49	0.204	0.448	0.924	2.42	1.33	2.69	1.77	3.27	0.725	1.73	1.31	2.71
CC1=C(C(=O)Nc2cc(F)c(F)cc2F)C(c2ccc(N(C)C)cc2)C(C(=O)Nc2cc(F)c(F)cc2F)=C(C)N1		> 87.9		> 96		> 100	12.2	89.8		> 85.9		> 100		> 100	28.6	> 100		> 100		> 77.2
O=C1/C(=C/c2ccccc2)CN(C(=O)/C=C/c2ccccc2)C/C1=C\c1ccccc1		38.5		65.3		16		16.2		9		8.27		45.2		18.3		48.9		17
Cc1ccc(S(=O)(=O)NC(=O)Nc2ncn[nH]2)cc1		> 100		> 100		> 100		> 100		> 100		> 100		> 100		> 100		> 100		> 100
CCCCCCCCCCCCNCCCc1ccccc1	1.8	3.5	1.63	2.98	1.63	3.27	1.76	3.29	2.15	5.32	1.8	3.33	1.68	3.48	1.71	3.33	2.07	3.7	1.93	3.62
C=CCN=C1NC(=O)C(CC(=O)Nc2ccc([N+](=O)[O-])cc2[N+](=O)[O-])S1 (configuration not stated)		> 100		> 100		> 100		> 100		> 100		> 100		> 100		> 100		> 100		> 100
CC(=O)OC1CCC2(C)C(=CCC3C2CCC2(C)C3CC3OC4(CCC(C)CN4)C(C)C32)C1 (configuration not stated)		> 100		> 100		> 100		> 100		> 100		> 100		> 100		> 100		> 100		> 100
NNC(=S)N/N=C(\c1nc2ccc(Cl)cc2[nH]c1=O)C(O)c1cccc([N+](=O)[O-])c1 (configuration not stated)		> 100		> 100		> 100		> 100		> 100		> 62.5		> 100		> 100		> 55.8		> 100
CC(=O)OC1C(C)OC(Oc2c(-c3ccc(O)cc3)oc3cc(O)cc(O)c3c2=O)C(O)C1OC(C)=O (configuration not stated)	52.3	> 100	31.9	> 90.8	27.3	97.5	21.4	> 60.5	30.2	> 100	48.2	> 100	> 100	> 100	52.3	> 100	35.9	> 100	29.9	> 100
CC(C)OC(=O)NNc1c(Cl)cc(Cl)cc1Cl		> 100		> 100		> 100		> 100		> 100		> 100		> 100		> 100		> 100		> 100
CCN(CC)CCNc1ccc2nc(C)n3c4ccc(OC)cc4c(=O)c1c23		13.3		4.75		15.2		20		1.19		7.88		20.3		10.3		21.7		7.82
CCn1cnc(C[C@H](NC(=O)[C@@H](NC(=O)Nc2cc(C(F)(F)F)cc(C(F)(F)F)c2)C(C)(C)C)C(=O)OC)c1	> 10	> 10	> 10	> 10	> 10	> 10	> 10	> 10	> 10	> 10	> 10	> 10	> 10	> 10	> 10	> 10	> 10	> 10	> 10	> 10
